We go through 14 compounds from PubChem BioAssay (NCI).

Several values for one entry are separate records, joined by “and”; a condition that tells them apart may be missing. Identical values can stand only once.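 In this assay, cells in 96-well plates receive the compound at five concentrations for 48 hours. Endpoints are linearly interpolated between the surrounding concentrations. GI50 is the concentration that inhibits growth by half. TGI denotes the concentration required for complete inhibition of growth.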

Holding throughout (experiment): NCI-60 cell line screen, 48 h
In test [1] the test system is HOP-62 NSCLC.
Test [2] deals with HT29 colon.
In test [3] the test system is M14 melanoma.
Test [4] has as its system MALME-3M melanoma.
Test [5] concerns NCI-H522 lung.
Test [6] concerns OVCAR-8 ovarian.
The test system of test [7] is SK-MEL-5 melanoma.
The subject of test [8] is RPMI-8226 leukemia.
The test system of test [9] is SF-539 CNS.

`O=C(O)C[O][Sb][O]CC(=O)O`: the GI50 in [1], in test [2], in test [3], in test [4], in [5] and in [6] was more than 100 µM each time. Further, the GI50 in test [7] was more than 100 µM. In addition, the TGI in [1], in test [2], in test [3], in test [4], in [5] and in [6] was more than 100 µM each time. The compound further showed a TGI in test [7] of more than 100 µM.
On to `CO/N=C(/COc1c(-c2ccccc2)oc2ccccc2c1=O)c1ccc(OC)cc1`, for which the GI50 was more than 100 µM in [1]; 51.6 µM in test [2]; more than 100 µM in test [3]; more than 100 µM in test [4]; 53.3 µM in test [5]; more than 100 µM in test [6]. The GI50 in [8] was 41.9 µM; in test [9] it was more than 100 µM. The TGI in test [1], in test [2], in test [3], in test [4], in [5] and in [6] was more than 100 µM throughout. Further, the TGI in test [8] and in test [9] was more than 100 µM throughout.
As to `CCC1(C(=O)OC)CCc2c(OC)ccc(OC)c2C1=O` (centres undefined), the TGI in [1], in [2], in test [3], in test [4], in test [5] and in test [6] was more than 100 µM each time. In addition, the TGI in test [8], in test [9] and in test [7] was more than 100 µM in each case.
For `CN(C)CC/C(=N\Nc1ccc(Cl)c(Cl)c1)c1ccccc1`, the TGI is 6.09 µM in test [1]; 4.05 µM in test [2]; 13.3 µM in [4]; 4.28 µM in [5]; 3.96 µM in [6]; 6.73 µM in [8]. Besides, the TGI in test [9] was determined as 3.47 µM; in [7], 3.43 µM.
For the compound `O=C1[C@@H]2C3SC(c4ccccc43)[C@@H]2C(=O)N1c1ccccc1`, the TGI in test [1], in test [2], in test [3], in test [4], in test [5] and in test [6] was more than 100 µM each time. Also, the TGI in test [8], in [9] and in test [7] was more than 100 µM in each case.
For `NC(=S)NNC(=O)CCC(=O)Nc1ccc(Cl)cc1Cl`, the TGI in [1], in [2], in [3], in [4], in test [5] and in test [6] was more than 100 µM each time. In addition, the TGI in test [8], in test [9] and in test [7] was more than 100 µM each time.
With `CCC[CH2][Ge]([CH2]CCC)([CH2]CCC)[O]C(=O)C(OC)c1ccccc1` (centres undefined), the GI50 in [1] was 20.6 µM; in test [2] it was 25.4 µM; in test [3] it was 16.7 µM; in test [4] it was 26.7 µM; in test [5], 16.3 µM; in [6], 70.2 µM. For the same compound, the GI50 in test [8] is 0.255 µM; in test [9] it was 32.1 µM; in test [7] it was 17.5 µM. Besides, the TGI was more than 70.6 µM in test [1]; more than 100 µM in [2]; 49.8 µM in test [3]; more than 100 µM in [4]; more than 74.9 µM in [5]; more than 100 µM in [6]. For the same compound, the results for the TGI in [8], in test [9] and in test [7] were 14.6 µM, more than 100 µM and more than 63.1 µM, respectively.
With `CCOC(=O)C(Cc1ccccc1)NC(=O)OC(C)(C)C` (centres undefined), the TGI in test [1], in test [2], in [3], in [4], in [6] and in test [9] was more than 100 µM each time.
With `CC(C)(C)OC(=O)NC1CCC[C@H]1O` (some centres undefined), the TGI in test [1], in test [2], in test [3], in test [4], in test [5] and in [6] was more than 100 µM throughout. Further, the TGI in test [9] and in [7] was more than 100 µM throughout.
`O=C(O)CCCCCO`: the TGI in [1], in [2], in [3], in test [4], in test [5] and in test [6] was more than 100 µM in each case. The TGI in [8], in test [9] and in test [7] was more than 100 µM throughout.
Take `Nc1nc(N)c(N=O)c(Nc2ccc(I)cc2)n1`: the TGI in test [1] was 51.1 µM; in [3], 56.6 µM; in test [4] it was 78.3 µM; in test [5], 29.9 µM; in [6], more than 100 µM; in test [8], more than 100 µM. Moreover, the TGI stood at 70.4 µM in test [9] and 26.3 µM in [7].
For the compound `O=C(/C=C/c1ccccc1O)c1cccnc1`, the TGI in test [1], in test [2], in test [3], in test [4], in [5] and in [6] was more than 100 µM each time. The TGI in test [9] and in test [7] was more than 100 µM throughout.
Turning to `Nc1ncnc2c(C3OC(CO)C(O)C3O)scc12` (centres undefined), the GI50 in test [1] is 0.12 µM; in [4], 4.35 µM; in test [7], 0.0781 µM. Further, the TGI in test [1] was 2.02 µM and 3.02 µM; in test [2], 1.12 µM; in [3], 0.217 µM and 0.277 µM; in [4], 24.4 µM; in test [5], 0.242 µM and 0.0939 µM; in test [7], 4.68 µM and 2.64 µM.
Regarding `CC(=O)OC1C/C(C)=C/CCC(C)/C=C/C2(C)CCC(C(C)(C)O)C12` (centres undefined), the TGI in test [1] is more than 100 µM; in [2], more than 100 µM; in test [3] it was more than 100 µM; in test [4], more than 100 µM; in test [6] it was more than 100 µM; in test [8], 71.7 µM. Further, the TGI in test [9] and in test [7] was more than 100 µM each time.
